According to patent publication US11827628B2, “Compositions and methods for inhibition of the JAK pathway” (Rigel Pharmaceuticals, Inc., priority 2005, dated 2023):

System: up-regulation of ICAM-1 (CD54) by IFNγ in U937 human monocytic cells
Assay: U937 IFNγ ICAM1 FACS Assay
Format: cell-based
Settings: U937 cells stimulated with IFNγ; ICAM-1 expression by FACS; read-out: IC50, Example 44
How it was run: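 Readout was the geometric-mean APC anti-ICAM-1 signal by FACS on live U937 monocytic cells, with % live cells also recorded. Cells were exposed to compounds (8 points, 3-fold dilutions, duplicates) for 30 min at 37 °C before 18–24 h of IFNγ stimulation. EC50 values were computed from the dose curve.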

IC50: 315 nM
SMILES: Cc1noc(COc2ccc(Nc3nc(Nc4ccc(C)c(S(N)(=O)=O)c4)ncc3F)cc2)n1 [Compound I-259, N2-(3-Aminosulfonyl-4-methylphenyl)-5-fluoro-N4-[4-(3-methyl-1,2,4-oxadiazol-5-yl)methyleneoxyphenyl]-2,4-pyrimidinediamine]
